In one experiment the test system is Streptococcus pyogenes. Briefly: In vitro minimum inhibitory concentration (MIC), two-fold serial dilution in Brain-Heart Infusion broth. Conditions: read-out: MIC vs. Strep. pyogenes. Type of experiment: cell-based. On the procedure: The antibacterial penam compounds, 6, show activity against a wide variety of gram-positive and gram-negative bacteria. […] The broth is inoculated with the bacterial culture, and with the test antibiotic, and then it is incubated overnight. On the next day, the test is read visually. The minimum inhibitory concentration (MIC) is the lowest concentration of antibiotic which prevents turbidity, i.e., which prevents growth of the microorganism. In vitro activities of several of the penam compounds of the invention are presented later in this specification.
In vitro antibacterial activities for a number of compounds prepared by the procedure of Example 4 are presented below.
In Table II, the minimum inhibitory concentrations (MIC's) of numerous compounds against a strain of Streptococcus pyogenes, are reported.

A further experiment concerns Staphylococcus aureus. Briefly: In vivo protection of mice against systemic infection by lethal intraperitoneal inoculum of Staphylococcus aureus. Also on record: species or system infected mice; Staphylococcus aureus. Conditions: SC, multiple dosing. On the procedure:
(§1) These antibacterial penam compounds are also active in vivo. In determining such activity, the test antibiotic is administered to infected mice, using a multiple dosing regimen. The severity of the infection varies from about one to about ten times the dose needed to kill 100% of the mice under the conditions of the test. At the end of the test, the activity of a compound is assessed by counting the number of survivors among the treated animals. Both the subcutaneous (SC) and oral (PO) dosage routes are used. Results are given in Table I for two compounds produced from the novel intermediate of the invention. The ability of the compounds to protect mice against systemic infections caused by a lethal intraperitoneal inoculum of Staphylococcus aureus or of Escherichia coli is presented.

In a further experiment the test system is Escherichia coli. The experiment can be described thus: In vivo protection of mice against systemic infection by lethal intraperitoneal inoculum of Escherichia coli. Also on record: species or system infected mice; Escherichia coli. Particulars: multiple dosing. On the procedure:
as §1

Setting [1] is: two-fold serial dilution, Brain-Heart Infusion broth, overnight incubation.

Structures are written as SMILES. Converted amounts (≈) assume the structure as drawn. Where two headings read alike, the source gives them in different places. A value given as a limit tells only on which side of the number the result lay.

Broadly, the MIC is the smallest concentration in the dilution series that meets the test's criterion for growth inhibition.

Turning to `CC1(C)SC2C(NC(=O)C3(N)CCCCC3)C(=O)N2C1c1nn[nH]n1` (stereo not drawn) [1-aminocyclohexylcarbonyl], the MIC in the experiment on Streptococcus pyogenes (setting [1]) turned out to be 25 µg/mL (≈ 68.4 µM).
For the compound `CC1(C)S[C@@H]2C(N)C(=O)N2C1c1nnn[nH]1` (stereo partly drawn) [hydrogen, 6-Amino-2,2-dimethyl-3-(5-tetrazolyl)penam], in the experiment with Streptococcus pyogenes (setting [1]), the minimum inhibitory concentration (MIC) was less than 0.1 µg/mL.
On the same count and under the same terms, under `CC1(C)SC2C(NC(=O)C=CC(N)=O)C(=O)N2C1c1nn[nH]n1` (stereo not drawn) [3-(carbamoyl)acryloyl] stands less than 0.1 µg/mL.
Still for that read-out and setting: the result for `CC1(C)SC2C(NC(=O)CBr)C(=O)N2C1c1nn[nH]n1` (stereo not drawn) [2-bromoacetyl] reads less than 0.1 µg/mL.
For the compound `CC1(C)S[C@@H]2C(NC(=O)[C@H](N)c3ccc(O)cc3)C(=O)N2C1c1nnn[nH]1` (stereo partly drawn) [6-(D-2-amino-2-[p-hydroxyphenyl]acetamido)-2,2-dimethyl-3-(5-tetrazolyl)penam], the “Percentage Protection S. aureus” value with Staphylococcus aureus (6 mg./kg.) turned out to be 50 Percentage; with Staphylococcus aureus (12 mg./kg.), 50 Percentage; in the experiment on Staphylococcus aureus (25 mg./kg.) it was 70 Percentage; in the experiment with Staphylococcus aureus (50 mg./kg.) it was 80 Percentage. Moreover, the “Percentage Protection E. coli” value came out at 80 Percentage in the experiment with Escherichia coli (25 mg./kg., SC); 100 Percentage in the experiment on Escherichia coli (50 mg./kg., SC); 100 Percentage with Escherichia coli (200 mg./kg., PO). Besides, the MIC in the experiment on Streptococcus pyogenes (setting [1]) is less than 0.1 µg/mL.
On to `CC1(C)SC2C(NC(=O)CSc3ccncc3)C(=O)N2C1c1nn[nH]n1` (stereo not drawn) [2-(4-pyridylthio)acetyl], for which the minimal inhibitory concentration (MIC) with Streptococcus pyogenes is less than 0.1 µg/mL.
In the case of `CC1(C)SC2C(NC(=O)[C@H](N)c3ccccc3)C(=O)N2C1c1nn[nH]n1` (stereo partly drawn) [D-2-amino-2-phenylacetyl], in the experiment on Streptococcus pyogenes (setting [1]), the MIC was less than 0.1 µg/mL.
Regarding `CC1(C)SC2C(NC(=O)Oc3ccccc3)C(=O)N2C1c1nn[nH]n1` (stereo not drawn) [phenoxycarbonyl], the MIC in the experiment with Streptococcus pyogenes was less than 0.1 µg/mL.
Consider `CC1(C)S[C@@H]2C(NC(=O)Cc3ccccc3)C(=O)N2C1c1nnn[nH]1` (stereo partly drawn) [2-phenylacetyl, 6-(2-phenylacetamido)-2,2-dimethyl-3-(5-tetrazolyl)penam], for which the MIC in the experiment on Streptococcus pyogenes (setting [1]) was less than 0.1 µg/mL.
On the same count and under the same terms, under `CC1(C)SC2C(NC(=O)[C@H](N)c3cccc(O)c3)C(=O)N2C1c1nn[nH]n1` (stereo partly drawn) [D-2-amino-2-(m-hydroxyphenyl)acetyl] stands less than 0.1 µg/mL; under `CC1(C)SC2C(NC(=O)C(N=[N+]=[N-])c3ccccc3)C(=O)N2C1c1nn[nH]n1` (stereo not drawn) [2-azido-2-phenylacetyl], less than 0.1 µg/mL.
As to `CCN=C(NCC)SCC(=O)NC1C(=O)N2C1SC(C)(C)C2c1nn[nH]n1` (stereo not drawn) [2-(N,N'-diethylamidinothio)acetyl], the MIC in the experiment with Streptococcus pyogenes (setting [1]) was less than 0.1 µg/mL.
Same read-out and setting: under `CC1(C)SC2C(NC(=O)CC#N)C(=O)N2C1c1nn[nH]n1` (stereo not drawn) [2-cyanoacetyl] stands 0.1 µg/mL (≈ 0.325 µM); under `CC1(C)SC2C(NC(=O)[C@@H](N)c3ccc(O)cc3)C(=O)N2C1c1nn[nH]n1` (stereo partly drawn) [L-2-amino-2-(p-hydroxyphenyl)acetyl], less than 0.1 µg/mL.
`CC1(C)SC2C(NC(=O)[C@H](N)c3cccc(F)c3)C(=O)N2C1c1nn[nH]n1` (stereo partly drawn) [D-2-amino-2-(m-fluorophenyl)acetyl]: in the experiment on Streptococcus pyogenes (setting [1]), the MIC is less than 0.1 µg/mL.
Still for that read-out and setting: under `COc1cccc(OC)c1C(=O)NC1C(=O)N2C1SC(C)(C)C2c1nn[nH]n1` (stereo not drawn) [2,6-dimethoxybenzoyl] stands less than 0.2 µg/mL; under `CN(C)c1ccc(C(N)C(=O)NC2C(=O)N3C2SC(C)(C)C3c2nn[nH]n2)cc1` (racemic), 0.39 µg/mL (≈ 0.936 µM).
Turning to `CC1(C)S[C@@H]2C(NC(=O)[C@H](N)c3ccsc3)C(=O)N2C1c1nnn[nH]1` (stereo partly drawn) [6-(D-2-amino-2-[3-thienyl]acetamido)-2,2-dimethyl-3-(5-tetrazolyl)penam], the “Percentage Protection S. aureus” value with Staphylococcus aureus (6 mg./kg.) stood at 50 Percentage; in the experiment with Staphylococcus aureus (12 mg./kg.), 50 Percentage; in the experiment on Staphylococcus aureus (25 mg./kg.) it was 60 Percentage; with Staphylococcus aureus (50 mg./kg.) it was 40 Percentage. Also, the “Percentage Protection E. coli” value stood at 20 Percentage with Escherichia coli (25 mg./kg., SC); 20 Percentage with Escherichia coli (50 mg./kg., SC); 0 Percentage with Escherichia coli (200 mg./kg., PO).
As for `CC1(C)SC2C(NC(=O)C(N)c3cccc(Cl)c3)C(=O)N2C1c1nn[nH]n1` (racemic) [DL-2-amino-2-(m-chlorophenyl)acetyl], the MIC in the experiment with Streptococcus pyogenes (setting [1]) stood at 0.78 µg/mL (≈ 1.91 µM).
The same measure, in the same setting: under `CC1(C)SC2C(NC(=O)C(N)c3ccc(O)c(O)c3)C(=O)N2C1c1nn[nH]n1` (racemic) [DL-2-amino-2-(3,4-dihydroxyphenyl)acetyl] stands less than 0.1 µg/mL; under `CC(=O)NC1C(=O)N2C1SC(C)(C)C2c1nn[nH]n1` (stereo not drawn) [acetyl], less than 0.1 µg/mL; under `CCOC(=O)NC1C(=O)N2C1SC(C)(C)C2c1nn[nH]n1` (stereo not drawn) [ethoxycarbonyl], less than 0.1 µg/mL.
Regarding `Cc1onc(-c2ccccc2Cl)c1C(=O)NC1C(=O)N2C1SC(C)(C)C2c1nn[nH]n1` (stereo not drawn), the MIC in the experiment on Streptococcus pyogenes (setting [1]) was less than 0.1 µg/mL.
On the same count and under the same terms, the result for `CC1(C)SC2C(NC(=O)[C@H](N)c3ccc(O)c(Cl)c3)C(=O)N2C1c1nn[nH]n1` (stereo partly drawn) reads 0.1 µg/mL (≈ 0.236 µM).
As to `CC1(C)SC2C(NC(=O)Cn3cnnn3)C(=O)N2C1c1nn[nH]n1` (stereo not drawn) [2-(1-tetrazolyl)acetyl], the MIC in the experiment on Streptococcus pyogenes (setting [1]) is less than 0.39 µg/mL.
Still for that read-out and setting: the result for `CC1(C)SC2C(NC(=O)OCc3ccccc3)C(=O)N2C1c1nn[nH]n1` (stereo not drawn) [benzyloxycarbonyl] reads less than 0.1 µg/mL; that for `CC1(C)SC2C(NC(=O)[C@H](N)c3cccs3)C(=O)N2C1c1nn[nH]n1` (stereo partly drawn) [D-2-amino-2-(2-thienyl)acetyl], 0.1 µg/mL (≈ 0.264 µM); that for `CC1(C)SC2C(NC(=O)C(N)c3ccc(Cl)cc3)C(=O)N2C1c1nn[nH]n1` (racemic) [DL-2-amino-2-(p-chlorophenyl)acetyl], less than 0.1 µg/mL.
As to `CC(C)[C@@H](N)C(=O)NC1C(=O)N2C1SC(C)(C)C2c1nn[nH]n1` (stereo partly drawn) [D-2-amino-3-methylbutyryl], the MIC in the experiment on Streptococcus pyogenes (setting [1]) turned out to be 0.2 µg/mL (≈ 0.589 µM).
On the same count and under the same terms, the result for `CC1(C)SC2C(NC(=O)C(N)c3cc(O)ccc3Br)C(=O)N2C1c1nn[nH]n1` (racemic) reads less than 0.1 µg/mL.
Take `CC1(C)SC2C(NC(=O)[C@H](N)Cc3ccccc3)C(=O)N2C1c1nn[nH]n1` (stereo partly drawn) [D-2-amino-3-phenylpropionyl]: the minimal inhibitory concentration (MIC) in the experiment on Streptococcus pyogenes (setting [1]) turned out to be 0.39 µg/mL (≈ 1.01 µM).
The same measure, in the same setting: under `CC1(C)SC2C(NC(=O)COc3ccccc3)C(=O)N2C1c1nn[nH]n1` (stereo not drawn) [2-phenoxyacetyl] stands less than 0.1 µg/mL.

Source of the values: patent US3950350A, “Penam-dimethylsulfoxide complex” (Pfizer Inc., priority 1974, dated 1976).
